Assays:
[1] = refractive index (Na D-line) (dimensionless); xn = mol fraction of the nth substance listed; settings: 100.8 kPa, Liquid, Standard Abbe refractometry
[2] = xn = mol fraction of the nth substance listed; settings: 288.15 K, 100.8 kPa, Liquid

CC1CCCCC1 [methylcyclohexane] + CCO
refractive index, [1]
Settings | 288.15 K | 298.15 K | 308.15 K
x2 = 0 | 1.42578 | 1.42053 | 1.41537
x2 = 0.05 | 1.42405 | 1.41871 | 1.41358
x2 = 0.1 | 1.42223 | 1.4169 | 1.41176
x2 = 0.15 | 1.42037 | 1.41505 | 1.40993
x2 = 0.2 | 1.41843 | 1.41313 | 1.40802
x2 = 0.25 | 1.41639 | 1.41112 | 1.40603
x2 = 0.3 | 1.41426 | 1.40902 | 1.40396
x2 = 0.35 | 1.41199 | 1.40679 | 1.40175
x2 = 0.4 | 1.4096 | 1.40442 | 1.39942
x2 = 0.45 | 1.40706 | 1.40192 | 1.39695
x2 = 0.5 | 1.40437 | 1.39927 | 1.39433
x2 = 0.55 | 1.4015 | 1.39644 | 1.39153
x2 = 0.6 | 1.39844 | 1.39343 | 1.38856
x2 = 0.65 | 1.39516 | 1.3902 | 1.38538
x2 = 0.7 | 1.39166 | 1.38674 | 1.38197
x2 = 0.75 | 1.38785 | 1.38298 | 1.37827
x2 = 0.8 | 1.38377 | 1.37896 | 1.37432
x2 = 0.85 | 1.37933 | 1.37459 | 1.37001
x2 = 0.9 | 1.37449 | 1.36985 | 1.36536
x2 = 0.95 | 1.36921 | 1.36474 | 1.36042

[2]
Settings | mass density [kg/m3] | viscosity [mPa·s]
x2 = 0 | 773.4 | 0.784
x2 = 0.05 | 773.4 | 0.771
x2 = 0.1 | 773.4 | 0.769
x2 = 0.15 | 773.7 | 0.77
x2 = 0.2 | 774 | 0.779
x2 = 0.25 | 774.3 | 0.793
x2 = 0.3 | 774.7 | 0.811
x2 = 0.35 | 775.1 | 0.831
x2 = 0.4 | 775.7 | 0.853
x2 = 0.45 | 776.3 | 0.877
x2 = 0.5 | 777 | 0.902
x2 = 0.55 | 777.8 | 0.928
x2 = 0.6 | 778.7 | 0.955
x2 = 0.65 | 779.6 | 0.983
x2 = 0.7 | 780.8 | 1.012

Source: the NIST ThermoML archive (doi:10.1021/je050031f)
